According to ChEMBL document CHEMBL3286107, “Synthesis of C,N'-linked bis-heterocycles using a deprotometalation-iodination-N-arylation sequence and evaluation of their antiproliferative activity in melanoma cells” (Bioorg Med Chem, 2014):
Activity calls are given as the source filed them. The rule behind the calls is not given here.

Assays:
A2058 [1] = assay: Growth inhibition of human A2058 cells at 10 uM after 72 hrs by MTT assay; type: functional
A2058 [2] = assay: Antiproliferative activity against human A2058 cells assessed as inhibition of cell growth after 72 hrs by MTT assay; type: functional, cell-based; conditions: A2058, 72 h

| SMILES | inhibition of growth at 10 µM (A2058 [1]; A2058, 72 h, read-out: GI) [%] | IC50 (A2058 [2]) [µM] | growth inhibition (GI) (A2058 [1]) |
| --- | --- | --- | --- |
| c1ccc2oc(-n3ccnc3)nc2c1 | 84.3 | 7.1 |  |
| c1ccc2sc(-n3cnc4ccccc43)nc2c1 |  |  | Active |
| c1ccc2oc(-n3cnc4ccccc43)nc2c1 |  |  | Active |
| c1ccc2sc(-n3cnc4ccccc43)cc2c1 |  |  | Active |
| c1ccc2oc(-n3cnc4ccccc43)cc2c1 |  |  | Active |
